{"source": "patent EP0019223A1", "about": "“Optically active hydantoin derivatives, their synthesis, pharmaceutical formulations containing them, and intermediates” (THE WELLCOME FOUNDATION LIMITED, priority 1979, dated 1980)", "key": {"[1]": {"test_system": "human platelet rich plasma", "assay": "Inhibition of ADP-stimulated platelet aggregation in fresh human platelet rich plasma (Born aggregometer)", "type": "cell-based", "conditions": "for Inhibition of platelet aggregation x PGE1: relative potency with respect to PGE1, 1 minute incubation at 37°C, ADP 2 to 5 µM; for activity (anti-platelet-aggregation) times that of PGE1: summary values given in the description", "procedure": "Aggregation of platelets in […] of fresh human platelet. rich plasma (PRP) was monitored in a Born aggregometer.\nThe compound to be tested was added to the PRP at the desired concentration, and the resulting mixture incubated at 37°C for 1 minute after which platelet aggregation was stimulated by the addition of adenosine diphosphate (ADR) in a concentration just causing maximal aggregation (2 to 5 µM).\nThe anti-aggregatory effect of the compound was assessed by measuring the percentage inhibition of platelet aggregation in the presence of the compound as compared with when it was completely absent."}, "[2]": {"test_system": "blood platelets", "assay": "Aggregation tests on rabbits (combination with phosphodiesterase inhibitor)", "type": "in vivo", "conditions": "dipyridamole combined with the (5S,3R) isomer"}}, "data": [{"smiles": "O=C(O)CCCCCC[C@@H]1C(=O)NC(=O)N1CC[C@@H](O)C1CCCCC1", "note": "[[(5R),(3R)], (5R)-5-(6-carboxyhexyl)-1-[(3R) - 3-cyclohexyl 3-hydroxypropyl] hydantoin]", "values": [{"measurement": "Inhibition of platelet aggregation x PGE1", "setting": "[1]; first of two experiments", "result": 0.05, "unit": "x PGE1"}, {"measurement": "Inhibition of platelet aggregation x PGE1", "setting": "[1]; second of two experiments", "result": 0.04, "unit": "x PGE1"}, {"measurement": "activity (anti-platelet-aggregation) times that of PGE1", "setting": "[1]", "result": "0.05 times that of PGE1"}]}, {"smiles": "O=C(O)CCCCCC[C@H]1C(=O)NC(=O)N1CC[C@H](O)C1CCCCC1", "note": "[[(5S),(3S)], (5S)-5-(6-carboxyhexyl)-1-[(3S)-3-cyclohexyl-3-hydroxypropyl]hydantoin]", "values": [{"measurement": "Inhibition of platelet aggregation x PGE1", "setting": "[1]; first of two experiments", "result": 0.07, "unit": "x PGE1"}, {"measurement": "Inhibition of platelet aggregation x PGE1", "setting": "[1]; second of two experiments", "result": 0.05, "unit": "x PGE1"}, {"measurement": "activity (anti-platelet-aggregation) times that of PGE1", "setting": "[1]", "result": "0.06 times that of PGE1"}]}, {"smiles": "O=C(O)CCCCCC[C@@H]1C(=O)NC(=O)N1CC[C@H](O)C1CCCCC1", "note": "[[(5R),(3S)], (5R)-5-(6-carboxyhexyl)-1-[(3S)-3-cyclohexyl-3-hydroxypropyl]hydantoin]", "values": [{"measurement": "IC50", "setting": "[1]; inhibition of platelet aggregation, human PRP", "result": "> 2", "unit": "µg/mL"}, {"measurement": "Inhibition of platelet aggregation x PGE1", "setting": "[1]; first of two experiments", "result": "inactive"}, {"measurement": "activity (anti-platelet-aggregation) times that of PGE1", "setting": "[1]", "result": "inactive"}]}, {"smiles": "O=C(O)CCCCCC[C@H]1C(=O)NC(=O)N1CC[C@@H](O)C1CCCCC1", "note": "[[(5S),(3R)], (5S)-5-(6-carboxyhexyl)-1-[(3R)-3-cyclohexyl-3-hydroxypropyl] hydantoin]", "values": [{"measurement": "anti-platelet-aggregation inhibitory effect relative to the activity of the corresponding racemate", "setting": "[1]; compared with racemate of (5S,3R) and (5R,3S) isomers", "result": "at least twice"}, {"measurement": "Inhibition of platelet aggregation x PGE1", "setting": "[1]; first of two experiments", "result": 83, "unit": "x PGE1"}, {"measurement": "Inhibition of platelet aggregation x PGE1", "setting": "[1]; second of two experiments", "result": 47, "unit": "x PGE1"}, {"measurement": "activity (anti-platelet-aggregation) times that of PGE1", "setting": "[1]", "result": "~40 times that of PGE1"}]}, {"smiles": "OCCN(CCO)c1nc(N2CCCCC2)c2nc(N(CCO)CCO)nc(N3CCCCC3)c2n1", "note": "[dipyridamole, 2,2',2\",2'\"-(4,8-dipiperidinopy-rimido [5,4-d]pyrimidine-2,6-diyldinitrilo)tetraethanol, reference compound]", "values": [{"measurement": "potentiation of the anti-aggregatory effect of the active compound", "setting": "[2]", "result": "potentation of the anti-aggregatory effect"}, {"measurement": "potentiation of the anti-aggregatory effect of the active compound", "setting": "[1]; dipyridamole combined with the (5S,3R) isomer, human platelet rich plasma", "result": "potentation of the anti-aggregatory effect"}]}]}
